Test results as given in publication PMC10141580, “Cyclic Dichalcogenides Extend the Reach of Bioreductive Prodrugs to Harness Thiol/Disulfide Oxidoreductases: Applications to seco-Duocarmycins Targeting the Thioredoxin System” (ACS Central Science, 2023).
Like-named read-outs stand apart in the source and are kept apart here.

Tested on: NCI-60 standardized human tumor cell line panel
Assay: cells
Type: cell-based
Settings: for NCI-60 screening: Log(GI50): log10 of GI50 in M; for NCI-60 screening: Log(RedIndex): log10 reductive index vs P-CC60

For `COc1cc2cc(C(=O)N3CC(CCl)c4c3cc(OC(=O)N3CCN(C)C5CSSCC53)c3ccccc43)[nH]c2c(OC)c1OC` (mixture of isomers) [Me-SS66T-CBI-TMI], the “NCI-60 screening: Log(GI50)” value (786-0 (RE) cell line) was -7.79, the “NCI-60 screening: Log(RedIndex)” value (786-0 (RE) cell line) was 2.03 and the GI50 (786-0 (RE) cell line, read-out: NCI-60 screening: Raw GI50) was 16 nM. The GI50 (786-0, read-out: GI50) was 16 nM, the “NCI-60 screening: Log(GI50)” value (A498 (RE) cell line) was -6.9 and the “NCI-60 screening: Log(RedIndex)” value (A498 (RE) cell line) was 1.34. For the same molecule, the GI50 (A498 (RE) cell line, read-out: NCI-60 screening: Raw GI50) was 130 nM, the GI50 (A498, read-out: GI50) was 130 nM and the GI50 (A549/ATCC, read-out: GI50) was 12 nM. The “NCI-60 screening: Log(GI50)” value (ACHN (RE) cell line) was -8.02, the “NCI-60 screening: Log(RedIndex)” value (ACHN (RE) cell line) was 1.71 and the GI50 (ACHN (RE) cell line, read-out: NCI-60 screening: Raw GI50) was 9.5 nM. For the same molecule, the GI50 (ACHN, read-out: GI50) was 9.5 nM, the GI50 (BT-549, read-out: GI50) was 15 nM and the “NCI-60 screening: Log(GI50)” value (CAKI-1 (RE) cell line) was -7.56. The “NCI-60 screening: Log(RedIndex)” value (CAKI-1 (RE) cell line) was 1.74, the GI50 (CAKI-1 (RE) cell line, read-out: NCI-60 screening: Raw GI50) was 27 nM and the GI50 (CAKI-1, read-out: GI50) was 27 nM. For the same molecule, the GI50 (CCRF-CEM, read-out: GI50) was 26 nM, the GI50 (COLO 205, read-out: GI50) was 49 nM and the “NCI-60 screening: Log(GI50)” value (DU-145 (PR) cell line) was -8.46. For the same molecule, the “NCI-60 screening: Log(RedIndex)” value (DU-145 (PR) cell line) was 2.12, the GI50 (DU-145, read-out: GI50) was 3.5 nM and the GI50 (EKVX, read-out: GI50) was 18 nM. For the same molecule, the GI50 (HCC-2998, read-out: GI50) was 15 nM, the GI50 (HCT-15, read-out: GI50) was 22 nM and the GI50 (HCT-116, read-out: GI50) was 18 nM. For the same molecule, the GI50 (HL-60(TB), read-out: GI50) was 12 nM, the GI50 (HOP-62, read-out: GI50) was 12 nM and the GI50 (HOP-92, read-out: GI50) was 27 nM. For the same molecule, the GI50 (HT29, read-out: GI50) was 34 nM, the “NCI-60 screening: Log(GI50)” value (IGROV1 (OV) cell line) was -7.23 and the “NCI-60 screening: Log(RedIndex)” value (IGROV1 (OV) cell line) was 1.6. For the same molecule, the GI50 (IGROV1 (OV) cell line, read-out: NCI-60 screening: Raw GI50) was 58 nM, the GI50 (IGROV1, read-out: GI50) was 58 nM and the GI50 (K-562, read-out: GI50) was 25 nM. The GI50 (KM12, read-out: GI50) was 44 nM, the GI50 (LOX IMVI, read-out: GI50) was 12 nM and the GI50 (M14, read-out: GI50) was 10 nM. For the same molecule, the GI50 (MALME-3M, read-out: GI50) was 14 nM, the GI50 (MCF7, read-out: GI50) was 5.2 nM and the GI50 (MDA-MB-435, read-out: GI50) was 27 nM. For the same molecule, the GI50 (MDA-MB-468, read-out: GI50) was 12 nM, the GI50 (MOLT-4, read-out: GI50) was 9.9 nM and the GI50 (NCI-H23, read-out: GI50) was 9.5 nM. The GI50 (NCI-H226, read-out: GI50) was 95 nM, the “NCI-60 screening: Log(GI50)” value (NCI-H460 (LC) cell line) was -8.32 and the “NCI-60 screening: Log(RedIndex)” value (NCI-H460 (LC) cell line) was 2.03. The GI50 (NCI-H460, read-out: GI50) was 4.8 nM, the “NCI-60 screening: Log(GI50)” value (NCI-H522 (LC) cell line) was -7.91 and the “NCI-60 screening: Log(RedIndex)” value (NCI-H522 (LC) cell line) was 2.14. The GI50 (NCI-H522 (LC) cell line, read-out: NCI-60 screening: Raw GI50) was 12 nM, the GI50 (NCI-H522, read-out: GI50) was 12 nM and the “NCI-60 screening: Log(GI50)” value (OVCAR-3 (OV) cell line) was -7.28. The “NCI-60 screening: Log(RedIndex)” value (OVCAR-3 (OV) cell line) was 1.6, the GI50 (OVCAR-3, read-out: GI50) was 53 nM and the “NCI-60 screening: Log(GI50)” value (OVCAR-4 (OV) cell line) was -6.8. The “NCI-60 screening: Log(RedIndex)” value (OVCAR-4 (OV) cell line) was 1.17, the GI50 (OVCAR-4 (OV) cell line, read-out: NCI-60 screening: Raw GI50) was 160 nM and the GI50 (OVCAR-4, read-out: GI50) was 160 nM. For the same molecule, the “NCI-60 screening: Log(GI50)” value (OVCAR-5 (OV) cell line) was -7.44, the “NCI-60 screening: Log(RedIndex)” value (OVCAR-5 (OV) cell line) was 2.15 and the GI50 (OVCAR-5, read-out: GI50) was 36 nM. For the same molecule, the “NCI-60 screening: Log(GI50)” value (OVCAR-8 (OV) cell line) was -8.06, the “NCI-60 screening: Log(RedIndex)” value (OVCAR-8 (OV) cell line) was 2.28 and the GI50 (OVCAR-8, read-out: GI50) was 8.6 nM. The “NCI-60 screening: Log(GI50)” value (PC-3 (PR) cell line) was -7.61, the “NCI-60 screening: Log(RedIndex)” value (PC-3 (PR) cell line) was 2.11 and the GI50 (PC-3 (PR) cell line, read-out: NCI-60 screening: Raw GI50) was 25 nM. For the same molecule, the GI50 (PC-3, read-out: GI50) was 25 nM, the GI50 (RPMI-8226, read-out: GI50) was 34 nM and the “NCI-60 screening: Log(GI50)” value (RXF 393 (RE) cell line) was -8.02. For the same molecule, the “NCI-60 screening: Log(RedIndex)” value (RXF 393 (RE) cell line) was 2.05, the GI50 (RXF 393 (RE) cell line, read-out: NCI-60 screening: Raw GI50) was 9.5 nM and the GI50 (RXF 393, read-out: GI50) was 9.5 nM. The GI50 (SF-268, read-out: GI50) was 15 nM, the GI50 (SF-295, read-out: GI50) was 9.7 nM and the GI50 (SF-539, read-out: GI50) was 10 nM. The GI50 (SK-MEL-5, read-out: GI50) was 13 nM, the GI50 (SK-MEL-28, read-out: GI50) was 15 nM and the “NCI-60 screening: Log(GI50)” value (SK-OV-3 (OV) cell line) was -7.91. For the same molecule, the “NCI-60 screening: Log(RedIndex)” value (SK-OV-3 (OV) cell line) was 2.24, the GI50 (SK-OV-3 (OV) cell line, read-out: NCI-60 screening: Raw GI50) was 12 nM and the GI50 (SK-OV-3, read-out: GI50) was 12 nM. The “NCI-60 screening: Log(GI50)” value (SN12C (RE) cell line) was -7.77, the “NCI-60 screening: Log(RedIndex)” value (SN12C (RE) cell line) was 1.85 and the GI50 (SN12C, read-out: GI50) was 17 nM. It also gave a GI50 (SNB-19, read-out: GI50) of 16 nM, a GI50 (SR, read-out: GI50) of 4 nM and a GI50 (SW-620, read-out: GI50) of 58 nM. For the same molecule, the GI50 (T-47D, read-out: GI50) was 50 nM, the “NCI-60 screening: Log(GI50)” value (TK-10 (RE) cell line) was -6.9 and the “NCI-60 screening: Log(RedIndex)” value (TK-10 (RE) cell line) was 1.35. The GI50 (TK-10 (RE) cell line, read-out: NCI-60 screening: Raw GI50) was 130 nM, the GI50 (TK-10, read-out: GI50) was 130 nM and the GI50 (U251, read-out: GI50) was 11 nM.
